{
  "source": "PubChem BioAssay AID1963972",
  "about": "(Molecular Pharmacology Branch, DTP, NCI, 2024)",
  "tested_on": "945468-187-T-J2-PDC spheroids viability",
  "assay": "Anticancer human tumor 945468-187-T-J2-PDC patient-derived rectal carcinoma cell line growth inhibition [PI3K]",
  "conditions": "spheroids with HUVEC and MSC; for pIC50: curve of first compound; for viability, T/C: stronger effect = lower value",
  "procedure,_shortened": "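Stroma-containing spheroids: tumor line, pooled-donor HUVEC, hMSC. Treatments: targeted agents with PI3K inhibitors. Dosing: clinically relevant, half-log spacing, 10 microM ceiling without known Cmax. Read-out: cell viability.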",
  "note": "pIC50: −log10 of the molar value.",
  "data": [
    {"molecule": "CC(=O)c1c(C)c2cnc(Nc3ccc(N4CCNCC4)cn3)nc2n(C2CCCC2)c1=O", "note": "+ Cc1nc(NC(=O)N2CCCC2C(N)=O)sc1-c1ccnc(C(C)(C)C(F)(F)F)c1;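 note: spheroids exposed to compounds for seven days before reading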", "values": [
      {"measurement": "pIC50", "setting": "second compound 0.0316 µM", "result": "< 7.00"},
      {"measurement": "pIC50", "setting": "second compound 0.1 µM", "result": "< 7.00"},
      {"measurement": "pIC50", "setting": "second compound 0.316 µM", "result": "< 7.00"},
      {"measurement": "pIC50", "setting": "second compound 1 µM", "result": "< 7.00"},
      {"measurement": "pIC50", "setting": "second compound 3.16 µM", "result": "< 7.00"},
      {"measurement": "pIC50", "setting": "second compound 10 µM", "result": "< 7.00"},
      {"measurement": "viability, T/C", "setting": "second compound 0.0316 µM, first compound 0.000316 µM", "result": 79.2, "unit": "%"},
      {"measurement": "viability, T/C", "setting": "second compound 0.0316 µM, first compound 0.001 µM", "result": 88.4, "unit": "%"},
      {"measurement": "viability, T/C", "setting": "second compound 0.0316 µM, first compound 0.00316 µM", "result": 89.4, "unit": "%"},
      {"measurement": "viability, T/C", "setting": "second compound 0.0316 µM, first compound 0.01 µM", "result": 121, "unit": "%"},
      {"measurement": "viability, T/C", "setting": "second compound 0.0316 µM, first compound 0.0316 µM", "result": 79.5, "unit": "%"},
      {"measurement": "viability, T/C", "setting": "second compound 0.0316 µM, first compound 0.1 µM", "result": 98.2, "unit": "%"},
      {"measurement": "viability, T/C", "setting": "second compound 0.1 µM, first compound 0.000316 µM", "result": 86.1, "unit": "%"},
      {"measurement": "viability, T/C", "setting": "second compound 0.1 µM, first compound 0.001 µM", "result": 84.2, "unit": "%"},
      {"measurement": "viability, T/C", "setting": "second compound 0.1 µM, first compound 0.00316 µM", "result": 89.6, "unit": "%"},
      {"measurement": "viability, T/C", "setting": "second compound 0.1 µM, first compound 0.01 µM", "result": 84.1, "unit": "%"},
      {"measurement": "viability, T/C", "setting": "second compound 0.1 µM, first compound 0.0316 µM", "result": 110, "unit": "%"},
      {"measurement": "viability, T/C", "setting": "second compound 0.1 µM, first compound 0.1 µM", "result": 103, "unit": "%"},
      {"measurement": "viability, T/C", "setting": "second compound 0.316 µM, first compound 0.000316 µM", "result": 93.7, "unit": "%"},
      {"measurement": "viability, T/C", "setting": "second compound 0.316 µM, first compound 0.001 µM", "result": 107, "unit": "%"},
      {"measurement": "viability, T/C", "setting": "second compound 0.316 µM, first compound 0.00316 µM", "result": 95.5, "unit": "%"},
      {"measurement": "viability, T/C", "setting": "second compound 0.316 µM, first compound 0.01 µM", "result": 88.6, "unit": "%"},
      {"measurement": "viability, T/C", "setting": "second compound 0.316 µM, first compound 0.0316 µM", "result": 118, "unit": "%"},
      {"measurement": "viability, T/C", "setting": "second compound 0.316 µM, first compound 0.1 µM", "result": 136, "unit": "%"},
      {"measurement": "viability, T/C", "setting": "second compound 1 µM, first compound 0.000316 µM", "result": 118, "unit": "%"},
      {"measurement": "viability, T/C", "setting": "second compound 1 µM, first compound 0.001 µM", "result": 110, "unit": "%"},
      {"measurement": "viability, T/C", "setting": "second compound 1 µM, first compound 0.00316 µM", "result": 75.7, "unit": "%"},
      {"measurement": "viability, T/C", "setting": "second compound 1 µM, first compound 0.01 µM", "result": 78, "unit": "%"},
      {"measurement": "viability, T/C", "setting": "second compound 1 µM, first compound 0.0316 µM", "result": 94.9, "unit": "%"},
      {"measurement": "viability, T/C", "setting": "second compound 1 µM, first compound 0.1 µM", "result": 90.3, "unit": "%"},
      {"measurement": "viability, T/C", "setting": "second compound 3.16 µM, first compound 0.000316 µM", "result": 79.2, "unit": "%"},
      {"measurement": "viability, T/C", "setting": "second compound 3.16 µM, first compound 0.001 µM", "result": 71.7, "unit": "%"},
      {"measurement": "viability, T/C", "setting": "second compound 3.16 µM, first compound 0.00316 µM", "result": 82.8, "unit": "%"},
      {"measurement": "viability, T/C", "setting": "second compound 3.16 µM, first compound 0.01 µM", "result": 75.3, "unit": "%"},
      {"measurement": "viability, T/C", "setting": "second compound 3.16 µM, first compound 0.0316 µM", "result": 83, "unit": "%"},
      {"measurement": "viability, T/C", "setting": "second compound 3.16 µM, first compound 0.1 µM", "result": 78.2, "unit": "%"},
      {"measurement": "viability, T/C", "setting": "second compound 10 µM, first compound 0.000316 µM", "result": 83, "unit": "%"},
      {"measurement": "viability, T/C", "setting": "second compound 10 µM, first compound 0.001 µM", "result": 66.7, "unit": "%"},
      {"measurement": "viability, T/C", "setting": "second compound 10 µM, first compound 0.00316 µM", "result": 78, "unit": "%"},
      {"measurement": "viability, T/C", "setting": "second compound 10 µM, first compound 0.01 µM", "result": 64.5, "unit": "%"},
      {"measurement": "viability, T/C", "setting": "second compound 10 µM, first compound 0.0316 µM", "result": 92.7, "unit": "%"},
      {"measurement": "viability, T/C", "setting": "second compound 10 µM, first compound 0.1 µM", "result": 76.3, "unit": "%"}
    ]}
  ]
}
